We go through six compounds from patent US20080159980A1, “Combination cancer therapy with a GST-activated anticancer compound and another anticancer therapy” (Telik, Inc., priority 2002, published 2008).

Like-named read-outs stand apart in the source and are kept apart here.

Test [1] relates to human ovarian cancer cell line OVCAR-3. In words: OVCAR-3 cell viability, Wst-1 assay (Example 1). Type of test: cell-based. The note with it: OVCAR-3, Wst-1, approximately three cell doublings. The procedure: (§1) Assay methods. All assays were conducted in triplicate wells, with solvent control. The extent of cell growth was expressed as a percentage of the signal from the solvent control wells. The means were computed and graphed, with the standard deviations shown as error bars.
The diluted compounds or solvent controls were then added at 50 μL/well. […] The results were further analyzed using the Combination Index (CI) method with the “CalcuSyn” program from Biosoft.

The subject of test [2] is human colon cancer cell line DLD-1. In words: cells. The note with it: DLD-1, read-out: IC20 (concentration of TLK286 used in FIG. 2). The test is classed as cell-based. On the procedure: as §1
The human colon cancer cell line DLD-1 was seeded at 4×10^4 cells/mL, 150 μL/well, and allowed to attach to the wells overnight. The diluted compounds or solvent controls were then added at 50 μL/well. Incubation with TLK286 alone and in combination with oxaliplatin was continued for approximately four cell doublings, and cell viability was determined using the CellTiter-Glo assay (Promega Corporation, Madison, Wis., U.S.A.), used in accordance with the assay kit directions. […] The results were further analyzed using the Combination Index (CI) method with the “CalcuSyn” program from Biosoft.

In test [3] the test system is human breast cancer cell line MCF-7. In words: MCF-7 cell proliferation, BrdU chemiluminescence assay (Example 4). The test is classed as cell-based. The procedure:
as §1
MCF-7 was seeded at 4×10^4 cells/mL, 150 μL/well, and allowed to attach to the wells for 4-5 hours. The diluted compounds or solvent controls were then added at 50 μL/well. Incubation with TLK286 alone and in combination with docetaxel was continued for one doubling, and cell proliferation was determined using the BrdU (chemiluminescence) assay, by labeling with BrdU (Roche Diagnostics Corporation, Indianapolis, Ind., U.S.A.) overnight. The assay is based on the incorporation of BrdU, an analogue of thymidine, during DNA synthesis. The incorporation of BrdU, which reflects the extent of cell proliferation, was then quantitated with an ELISA kit (also from Roche Diagnostics Corporation). The results were analyzed according to the Combination Index method.

Test [4] deals with human lung cancer cell line A-549. In words: cells. Type of test: cell-based. Conditions: A549, read-out: IC50 (concentration of TLK286 used in FIG. 5).
For test [5], the system named is human non-Hodgkin's B cell lymphoma cell line RL. In words: RL cell growth, method similar to Example 2 (Example 8). The test is classed as cell-based. Conditions: RL cells.
Test [6] concerns human ovarian cancer cell line OVCAR-3.
Method: The results were analyzed according to the Combination Index method with the “CalcuSyn” program from Biosoft.
Test [7] relates to ovarian, breast, non-small cell lung, and colorectal cancers.
In test [8] the test system is M6709 human colon carcinoma cell line selected for resistance to doxorubicin. The note with it: doxorubicin-resistant line overexpressing GST P1-1; Morgan et al. 1998; cited from earlier work.
Test [9] has as its system MCF-7 human breast carcinoma cell line selected for resistance to cyclophosphamide. Conditions: cyclophosphamide-resistant line overexpressing GST P1-1; Morgan et al. 1998; cited from earlier work.
For test [10], the system named is murine xenografts of M7609 engineered to have high, medium, and low levels of GST P1-1. The note with it: Morgan et al. 1998; cited from earlier work.
The test system of test [11] is in vitro cell culture and tumor biopsies. Conditions: Rosario et al. 2000; cited from earlier work.
Another test deals with GST P1-1 (Homo sapiens, UniProt P09211). Conditions: releases cytotoxic phosphorodiamidate mustard moiety; cited from earlier work.
A further test has as its target T1, GST A1-1 (Homo sapiens, UniProt P08263).
T1 sequence (P08263 2-222 limits assumed): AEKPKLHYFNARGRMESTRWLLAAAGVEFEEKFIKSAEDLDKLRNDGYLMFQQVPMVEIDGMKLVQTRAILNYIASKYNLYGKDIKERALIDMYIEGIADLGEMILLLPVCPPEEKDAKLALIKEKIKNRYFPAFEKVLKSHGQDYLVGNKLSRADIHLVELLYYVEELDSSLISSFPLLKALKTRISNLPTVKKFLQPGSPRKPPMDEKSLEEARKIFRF
The note with it: cited from earlier work.

The target of the next test is T2, GST M1a-1a (Homo sapiens, UniProt P09488).
T2 sequence (P09488 1-218): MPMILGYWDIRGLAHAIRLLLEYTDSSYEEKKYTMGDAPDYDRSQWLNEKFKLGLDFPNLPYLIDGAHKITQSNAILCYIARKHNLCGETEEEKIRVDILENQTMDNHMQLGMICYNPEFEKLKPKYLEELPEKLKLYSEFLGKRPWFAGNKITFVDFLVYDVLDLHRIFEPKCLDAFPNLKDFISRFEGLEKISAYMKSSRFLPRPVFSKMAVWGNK
Conditions: cited from earlier work.

For test [12], the system named is human breast cancer cell line MX-1. In words: MX-1 cell growth, method similar to Example 2 (Example 9). The note with it: MX-1 cells. Type of test: cell-based.

Sequence of GST P1-1 (P09211 2-210 limits assumed): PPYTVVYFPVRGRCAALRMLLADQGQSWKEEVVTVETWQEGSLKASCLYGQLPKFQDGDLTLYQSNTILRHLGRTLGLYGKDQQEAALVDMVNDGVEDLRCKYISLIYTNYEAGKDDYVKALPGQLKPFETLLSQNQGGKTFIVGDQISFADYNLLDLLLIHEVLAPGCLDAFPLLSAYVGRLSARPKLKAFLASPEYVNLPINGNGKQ

Consider `N[C@@H](CCC(=O)N[C@@H](CS(=O)(=O)CCOP(=O)(N(CCCl)CCCl)N(CCCl)CCCl)C(=O)N[C@@H](C(=O)O)c1ccccc1)C(=O)O` [TLK286, L-γ-glutamyl-3-[[2-[[bis[bis (2-chloroethyl)amino]phosphinyl]oxy]ethyl]sulfonyl]-L-alanyl-2-phenyl-(2R)-glycine], for which, in test [1], the “IC30 (concentration of TLK286 used in FIG. 1)” value was roughly 3.1 µM. For the same compound, the IC20 in test [2] was roughly 9 µM. In addition, in test [3] (MCF-7, BrdU incorporation, one doubling), the “IC40 (concentration of TLK286 used in FIG. 4)” value is roughly 3.3 µM. In test [4], the IC50 was roughly 4 µM. The “IC25 (concentration of TLK286 used in FIG. 8)” value in test [5] is roughly 4.6 µM. The “IC10 (concentration of TLK286 used in FIG. 3)” value in [6] was roughly 1.7 µM. For the same compound, the “single agent clinical activity” value in [7] (colorectal and breast cancer) was “single agent antitumor activity”; in test [7] (patients with non-small cell lung cancer and ovarian cancer), “significant single agent antitumor activity and improvement in survival”. Besides, the “potency in resistant line over parental cell line” value in [8] and in [9] was “more potent” throughout. For the same compound, the “potency in xenografts versus GST P1-1 level” value in test [10] is “positively correlated with the level of GST P1-1”. Further, the “cross-resistance to platinum, paclitaxel, doxorubicin and gemcitabine” value in test [11] is “non-cross-resistant”. The “activation by GST isoenzyme” value at GST P1-1 and at GST A1-1 was “activated” in each case.
`C[C@@](NC(=O)[C@H](CS(=O)(=O)CCOP(=O)(N(CCCl)CCCl)N(CCCl)CCCl)NC(=O)CC[C@H](N)C(=O)O)(C(=O)O)c1ccccc1` [TLK303, L-γ-glutamyl-3-[[2-[[bis[bis(2-choroethyl)-amino]phosphinyl]oxy]ethyl]sulfonyl]-L-alanyl-2-phenyl-(2S) -alanine]: the “activation by GST isoenzyme” value on GST A1-1 is listed as “activated”.
Consider `CC(=O)O[C@@]12CO[C@@H]1C[C@H](O)[C@@]1(C)C(=O)[C@H](O)C3=C(C)[C@@H](OC(=O)[C@H](O)[C@@H](NC(=O)OC(C)(C)C)c4ccccc4)C[C@@](O)([C@@H](OC(=O)c4ccccc4)[C@H]21)C3(C)C` [docetaxel, reference compound], for which, in test [3] (MCF-7, BrdU, docetaxel about 0.8 to 3 nM, from nearly no effect), the “inhibition of proliferation at top of concentration range” value is roughly 60%.
Take `N[C@@H](CCC(=O)N[C@@H](CS(=O)(=O)CCOP(=O)(N(CCCl)CCCl)N(CCCl)CCCl)C(=O)NCC(=O)O)C(=O)O` [TLK231, L-γ-glutamyl-3-[[2-[[bis[bis(2-chloroethyl)amino]phosphinyl]oxy]ethyl]sulfonyl]-L-alanyl-glycine]: the “activation by GST isoenzyme” value at GST M1a-1a is listed as “activated”.
With `N[C@@H](CCC(=O)N[C@@H](Cc1cccc(S(=O)(=O)CCOP(=O)(N(CCCl)CCCl)N(CCCl)CCCl)c1)C(=O)NCC(=O)O)C(=O)O` [TLK296, L-γ-glutamyl-3-[[2-[[bis[bis(2-chloroethyl)amino]phosphinyl]oxy]ethyl]sulfonyl]-L-phenylalanyl-glycine], the “activation by GST isoenzyme” value on GST P1-1 is “activated”.
As to `COc1cc2ncnc(Nc3ccc(F)c(Cl)c3)c2cc1OCCCN1CCOCC1` [gefitinib], the “IC30 (concentration of gefitinib used in FIG. 9)” value in test [12] is roughly 2.0 µM.
